The source of these data is ChEMBL document CHEMBL4257591 (J Med Chem, 2018).

The subject of data set [1] is Staphylococcus aureus. The data set can be described thus: Drug penetration in Staphylococcus aureus KCTC 1621 at MIC concentration after 20 mins using FITC-labelled compounds by confocal laser-scanning microscopy. In kind it is ADME, organism-based. The following applies: in vivo.
For data set [2], the system named is Escherichia coli. The data set can be described thus: Drug penetration in Escherichia coli KCTC 1682 at MIC concentration after 20 mins using FITC-labelled compounds by confocal laser-scanning microscopy. The following applies: in vivo. Type of data set: ADME, organism-based.
Data set [3] in a line: Drug uptake in Staphylococcus aureus KCTC 1621 cytoplasm at 30 uM after 20 mins using FITC-labeled compound by confocal laser-scanning microscopy. Type of data set: ADME.
Data set [4] can be described thus: Drug uptake in Escherichia coli KCTC 1682 cytoplasm at 30 uM after 20 mins using FITC-labeled compound by confocal laser-scanning microscopy. Type of data set: ADME.
For data set [5], the system named is Escherichia coli. Put plainly: Antimicrobial activity against Escherichia coli KCTC 1682 after 18 hrs using FITC-labelled compound. Type of data set: functional.
In data set [6] the test system is Staphylococcus aureus. Put plainly: Antimicrobial activity against Staphylococcus aureus KCTC 1621 after 18 hrs using FITC-labelled compound. Type of data set: functional.
The subject of data set [7] is Escherichia coli. Put plainly: Induction of membrane permeabilization in Escherichia coli KCTC 1682 assessed as PI-positive cells at 16 uM after 1 to 2 hrs by propidium iodide-staining based flow cytometry (reference value: 2.36%). Type of data set: functional.

In brackets after ≈: the same amount, converted by molar mass. Activity calls are given as the source filed them. No cut-off for these calls is given here. Starred links: 1 amine or outer side, 2 acyl side, 3 side chain; linkers in the order of their positions; H or OH if unused. Positions of bridges follow the written chain, without caps; N, C: chain ends. Non-standard residues stand in square brackets, D forms with d. Residues, ends and D or L forms follow the SMILES beside them. *: point of attachment. X1 = NC(=O)C[C@@H](C(=O)[*:2])N(c1ccc2c(c1)C(=O)OC21c2ccc(O)cc2Oc2cc(O)ccc21)[*:1]; FITC = O=C1OC2(c3ccc(O)cc3Oc3cc(O)ccc32)c2ccc(NC(=S)*)cc21; Ahx = NCCCCCC(=O)O

Turning to `CC[C@H](C)[C@H](NC(=O)[C@@H](NC(=O)[C@H](Cc1cnc[nH]1)NC(=O)[C@H](CCCNC(=N)N)NC(=O)[C@H](C)NC(=O)[C@H](CCCNC(=N)N)NC(=O)[C@H](CC(C)C)NC(=O)[C@H](CO)NC(=O)[C@H](C)NC(=O)[C@H](CO)NC(=O)[C@H](CC(C)C)NC(=O)[C@H](CC(N)=O)Nc1ccc2c(c1)C(=O)OC21c2ccc(O)cc2Oc2cc(O)ccc21)[C@@H](C)O)C(=O)N1CCC[C@H]1C(=O)N[C@@H](CCC(N)=O)C(=O)N[C@@H](CO)C(=O)N[C@@H](CCCNC(=N)N)C(=O)N[C@@H](CCCCN)C(=O)N[C@@H](Cc1ccccc1)C(=O)NCC(=O)N[C@@H](CCCNC(=N)N)C(=O)N[C@@H](CCCNC(=N)N)C(N)=O` (H-[X1]LSASLRARHTIPQSRKFGRR-NH2), the Drug uptake result (in the data set on Staphylococcus aureus [1]; in the data set with Escherichia coli [2]; in data set [3]; in data set [4]) was “Active” each time. The outcome with Escherichia coli [5] and in the data set on Staphylococcus aureus [6] was Active.

As to `CC[C@H](C)[C@@H]1NC(=O)[C@H]([C@@H](C)O)NC(=O)[C@H](Cc2cnc[nH]2)NC(=O)[C@H](CCCNC(=N)N)NC(=O)[C@H](C)NC(=O)[C@H](CCCNC(=N)N)NC(=O)[C@H](CC(C)C)NC(=O)[C@H](CO)NC(=O)[C@H](C)NC(=O)[C@@H](NC(=O)[C@H](CC(C)C)NC(=O)[C@H](CC(N)=O)NC(=O)CCCCCNC(=S)Nc2ccc3c(c2)C(=O)OC32c3ccc(O)cc3Oc3cc(O)ccc32)CSSC[C@@H](C(=O)N[C@@H](CCCNC(=N)N)C(=O)N[C@@H](CCCCN)C(=O)N[C@@H](Cc2ccccc2)C(=O)NCC(=O)N[C@@H](CCCNC(=N)N)C(=O)N[C@@H](CCCNC(=N)N)C(N)=O)NC(=O)[C@H](CCC(N)=O)NC(=O)[C@@H]2CCCN2C1=O` ({FITC-Ahx}-NLCASLRARHTIPQCRKFGRR-NH2; disulfide 3-15), the Drug uptake result in data set [3] and in data set [4] was “Active” in each case. For the same molecule, the MIC against Escherichia coli [5] (KCTC 1682, 18 h) was found to be 12.5 µM (≈ 37.3 µg/mL); in the data set on Staphylococcus aureus [6] (KCTC 1621, 18 h), 12.5 µM (≈ 37.3 µg/mL).

For `CC[C@H](C)[C@H](NC(=O)[C@H](CCCCN)NC(=O)[C@H](CCC(=O)O)NC(=O)[C@H](CCCCN)NC(=O)[C@H](CO)NC(=O)[C@H](CCCCN)NC(=O)[C@H](CCCNC(=N)N)NC(=O)[C@H](Cc1ccccc1)NC(=O)[C@H](Cc1ccccc1)NC(=O)[C@H](CC(=O)O)NC(=O)CNC(=O)[C@H](CC(C)C)NC(=O)[C@@H](N)CC(C)C)C(=O)NCC(=O)N[C@@H](CCCCN)C(=O)N[C@@H](CCC(=O)O)C(=O)N[C@@H](Cc1ccccc1)C(=O)N[C@@H](CCCCN)C(=O)N[C@@H](CCCNC(=N)N)C(=O)N[C@H](C(=O)N[C@H](C(=O)N[C@@H](CCC(N)=O)C(=O)N[C@@H](CCCNC(=N)N)C(=O)N[C@H](C(=O)N[C@@H](CCCCN)C(=O)N[C@@H](CC(=O)O)C(=O)N[C@@H](Cc1ccccc1)C(=O)N[C@@H](CC(C)C)C(=O)N[C@@H](CCCNC(=N)N)C(=O)N[C@@H](CC(N)=O)C(=O)N[C@@H](CC(C)C)C(=O)N[C@H](C(=O)N1CCC[C@H]1C(=O)N[C@@H](CCCNC(=N)N)C(=O)N[C@H](C(=O)N[C@@H](CCC(=O)O)C(=O)N[C@@H](CO)C(=O)O)[C@@H](C)O)C(C)C)[C@@H](C)CC)C(C)C)[C@@H](C)CC` [CATHELICIDIN], the Activity in the data set on Escherichia coli [7] was found to be 75.38%.

By MIC is commonly meant the lowest concentration that inhibits growth of the organism.
